Among the data in PubChem BioAssay (NCI) are TGI values, retold here.

Each structure is given as a SMILES string.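 Protocol summary: plate cells (96-well), add compound at 5 concentrations, incubate 48 h, interpolate endpoints linearly. TGI is the concentration that stops growth completely.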 Where only a bound is given, the exact number is not on record here.

Some test systems named below: DLD-1 colon; SR leukemia; DMS 273 small cell lung; OVCAR-8 ovarian; SK-OV-3 ovarian; U251 CNS; SNB-78 CNS; DMS 114 small cell lung; OVCAR-5 ovarian; EKVX NSCLC; HT29 colon; A498 renal.
Assay in all cases: NCI-60 cell line screen, 48 h

Take `CCCCCCCCCC1CC(=O)OC2=C1C(=O)CCC2` (configuration not stated): the TGI in the assay on DLD-1 colon, with SR leukemia, in the assay on DMS 273 small cell lung, with OVCAR-8 ovarian, in the assay on SK-OV-3 ovarian and in the assay with U251 CNS was > 100 µM in each case. For the same molecule, the TGI in the assay with SNB-78 CNS, in the assay on DMS 114 small cell lung, in the assay on OVCAR-5 ovarian, with EKVX NSCLC and in the assay with HT29 colon was > 100 µM throughout.
Take `CC1(C)CC(=O)C(CC2C(=O)CCCC2=O)C(=O)C1`: the TGI in the assay with DLD-1 colon, with SR leukemia, in the assay on A498 renal, with DMS 273 small cell lung, with OVCAR-8 ovarian and in the assay with SK-OV-3 ovarian was > 100 µM throughout. Moreover, the TGI in the assay on U251 CNS, with SNB-78 CNS, in the assay on DMS 114 small cell lung, in the assay with OVCAR-5 ovarian, in the assay on EKVX NSCLC and with HT29 colon was > 100 µM each time.
Take `COc1ccc(C(C2=C(O)CC(C)OC2=O)C2=C(O)CC(C)OC2=O)cc1` (configuration not stated): the TGI in the assay with DLD-1 colon, in the assay on SR leukemia, with DMS 273 small cell lung, with OVCAR-8 ovarian, in the assay on U251 CNS and in the assay with SNB-78 CNS was > 100 µM in each case. Also, the TGI in the assay with DMS 114 small cell lung, with OVCAR-5 ovarian, in the assay on EKVX NSCLC and with HT29 colon was > 100 µM each time.
Take `COc1cc2[nH]c3c(c2cc1OC)CCN[C@@]31CC[C@@]2(CC3c4c(cc(OC)c(O)c42)CCN3C)C[C@@H]1OC` (some centres not stated): the TGI in the assay on DLD-1 colon is > 100 µM; in the assay with SR leukemia it was 36.6 µM; in the assay on A498 renal it was > 96.9 µM; in the assay with DMS 273 small cell lung, > 100 µM; in the assay with OVCAR-8 ovarian it was > 100 µM; with SK-OV-3 ovarian it was > 100 µM. For the same molecule, the TGI with U251 CNS is > 91.4 µM; in the assay on SNB-78 CNS, > 100 µM; in the assay on DMS 114 small cell lung, 37.2 µM; in the assay with OVCAR-5 ovarian, > 100 µM; with EKVX NSCLC it was > 46.4 µM; with HT29 colon, > 91.2 µM.
Consider `CCO/C=C\C12CCCC1NC(c1ccccc1)(c1ccccc1)O2` (configuration not stated), for which the TGI in the assay on DLD-1 colon, in the assay with A498 renal, in the assay on DMS 273 small cell lung, with OVCAR-8 ovarian, in the assay on SK-OV-3 ovarian and in the assay with U251 CNS was > 100 µM each time. The TGI was > 100 µM in the assay with SNB-78 CNS; 79.5 µM in the assay on DMS 114 small cell lung; 37 µM in the assay on OVCAR-5 ovarian; > 100 µM in the assay with EKVX NSCLC; 57.8 µM in the assay with HT29 colon.
With `CCC(O)CCCCCCCCCCCCCCC(=O)O` (configuration not stated), the TGI with DLD-1 colon, in the assay on SR leukemia, in the assay on A498 renal, in the assay on DMS 273 small cell lung, in the assay on OVCAR-8 ovarian and with SK-OV-3 ovarian was > 100 µM in each case. For the same molecule, the TGI in the assay with U251 CNS, in the assay on SNB-78 CNS, with DMS 114 small cell lung, with OVCAR-5 ovarian, in the assay on EKVX NSCLC and in the assay on HT29 colon was > 100 µM in each case.
As for `CCCCCCCCCCCCCCNCC(OC)OC`, the TGI in the assay on DLD-1 colon is 28.6 µM; in the assay on A498 renal it was 35 µM; with DMS 273 small cell lung, 33 µM; in the assay on OVCAR-8 ovarian, 44.3 µM; in the assay on SK-OV-3 ovarian, 33.1 µM; in the assay with U251 CNS it was 31.6 µM. In addition, the TGI in the assay with SNB-78 CNS came out at 34.3 µM; with DMS 114 small cell lung it was 29.3 µM; in the assay with OVCAR-5 ovarian, 27.8 µM; with EKVX NSCLC it was 34.2 µM; with HT29 colon, 14.3 µM.
Consider `OC1OCC(COc2cc(Cl)c(Cl)cc2Cl)OC1O` (configuration not stated), for which the TGI with DLD-1 colon, in the assay on A498 renal, in the assay with DMS 273 small cell lung, in the assay on OVCAR-8 ovarian, in the assay with SK-OV-3 ovarian and in the assay on U251 CNS was > 100 µM each time. Besides, the TGI was 79.7 µM in the assay with SNB-78 CNS; 88.3 µM with DMS 114 small cell lung; > 100 µM in the assay on OVCAR-5 ovarian; 81.9 µM in the assay on EKVX NSCLC; > 100 µM in the assay on HT29 colon.
For `C/C(=N\N=C(N)N)C(CN1CCOCC1)C(c1ccccc1)c1c(O)c2ccccc2oc1=O` (configuration not stated), the TGI in the assay on DLD-1 colon, in the assay with SR leukemia, in the assay on DMS 273 small cell lung, with OVCAR-8 ovarian, in the assay on SK-OV-3 ovarian and in the assay on U251 CNS was > 100 µM each time. Besides, the TGI with SNB-78 CNS, in the assay on DMS 114 small cell lung, with OVCAR-5 ovarian, in the assay on EKVX NSCLC and in the assay with HT29 colon was > 100 µM in each case.
Turning to `O=C(Nc1ccc(Br)cc1)C(=O)C(C(=O)c1ccc(Cl)c(Cl)c1)C1OC(=O)c2ccccc21` (configuration not stated), the TGI was 39.6 µM in the assay on DLD-1 colon; > 100 µM with SR leukemia; 33.9 µM in the assay with A498 renal; 60 µM in the assay on DMS 273 small cell lung; 32.3 µM in the assay with OVCAR-8 ovarian; > 100 µM in the assay with SK-OV-3 ovarian. Besides, the TGI was 22.8 µM in the assay with U251 CNS; > 100 µM in the assay on SNB-78 CNS; 28.6 µM in the assay with DMS 114 small cell lung; 52.3 µM with OVCAR-5 ovarian; > 100 µM in the assay with EKVX NSCLC; 45 µM in the assay on HT29 colon.
Regarding `O=C(CC12C3C4C1C1C2C3C41CC(=O)NO)NO` (configuration not stated), the TGI was > 100 µM with DLD-1 colon; > 100 µM in the assay on SR leukemia; 76.1 µM in the assay with A498 renal; > 100 µM in the assay on DMS 273 small cell lung; > 100 µM with OVCAR-8 ovarian; > 100 µM in the assay on U251 CNS. The TGI was > 100 µM in the assay on SNB-78 CNS; 60.6 µM in the assay with DMS 114 small cell lung; > 100 µM in the assay with OVCAR-5 ovarian; > 100 µM in the assay with EKVX NSCLC; 88.7 µM in the assay with HT29 colon.
As for `O=C1CCC2(O)c3ccccc3C2Cc2ccccc21` (configuration not stated), the TGI in the assay on DLD-1 colon, in the assay on SR leukemia, in the assay with DMS 273 small cell lung, with OVCAR-8 ovarian, in the assay on U251 CNS and in the assay with SNB-78 CNS was > 100 µM each time. The TGI in the assay with DMS 114 small cell lung, with EKVX NSCLC and with HT29 colon was > 100 µM throughout.
`CSc1ccc(N2C(=O)C3c4[nH]c5ccccc5c4C4CCC(C(C)(C)C)CC4C3C2=O)cc1` (configuration not stated): the TGI is > 100 µM in the assay with DLD-1 colon; 23.2 µM with SR leukemia; 33.7 µM in the assay on A498 renal; 25.3 µM with DMS 273 small cell lung; 27.8 µM with OVCAR-8 ovarian; 32.7 µM in the assay with SK-OV-3 ovarian. Further, the TGI in the assay on U251 CNS was 31.5 µM; with SNB-78 CNS, 31.1 µM; with DMS 114 small cell lung, 63.5 µM; in the assay on OVCAR-5 ovarian, > 100 µM; in the assay on EKVX NSCLC, 44.2 µM; in the assay on HT29 colon, > 100 µM.
Consider `Cc1cc(N(CCC#N)S(=O)(=O)c2ccccc2)ccc1C=Nc1ccc(C(=O)O)cc1`, for which the TGI in the assay on DLD-1 colon is 4.11 µM; in the assay on SR leukemia it was > 40.9 µM; with A498 renal, 44.5 µM; with DMS 273 small cell lung it was 17.5 µM; with OVCAR-8 ovarian, 15.5 µM; in the assay with SK-OV-3 ovarian, 48.9 µM. Moreover, the TGI in the assay with U251 CNS came out at 38.2 µM; in the assay on SNB-78 CNS, 34.7 µM; in the assay with DMS 114 small cell lung it was 10.1 µM; with OVCAR-5 ovarian, 38.7 µM; in the assay on EKVX NSCLC, 35.8 µM; with HT29 colon, 45.6 µM.
